In patent US20050240034A1, “Artemisinin-based peroxide compounds as broad spectrum anti-infective agents” (priority 2002, published 2005):

Key:
[1] = tested on: P. falciparum; conditions: cited from earlier work
[2] = tested on: P. falciparum NF54; assay: WHO/TDR in vitro antimalarial screen, NF54; type: cell-based, Plasmodium falciparum; conditions: NF54, chloroquine-sensitive; second value in brackets not explained
Description: (§1) […]. All test compounds are solubilized in DMSO and diluted 400 fold (to rule out a DMSO effect) in culture medium with plasma for a starting concentration of at least 12,500 ng/mL. Drugs are subsequently diluted five fold using the Cetus Pro/Pette system utilizing a range of concentrations from 0.8 ng/mL to 12,500 ng/mL. Fifty percent inhibitory concentrations are reported in ng/mL.
(§2) The D6 African P. falciparum clone is sensitive to chloroquine, pyrimethamine and sulfadoxine but resistant to mefloquine. The W2 Indochina P. falciparum clone is resistant to chloroquine, pyrimethamine and sulfadoxine but sensitive to mefloquine. The K1 P. falciparum is a resistant strain, where NF54 P. falciparum is a sensitive strain.

[3] = tested on: P. yoelli ssp. NS; assay: in vivo 4-day antimalarial test in mice, P. yoelli ssp. NS; conditions: subcutaneous; unit not given
Description: (§3) The parasitemia is determined on the day following the last treatment—day 4 to determine qualitatively the presence and degree of activity at the screening dose.

[4] = tested on: P. falciparum D6 (Sierra Leone); assay: antimalarial parasite LDH (pLDH) assay, D6; type: cell-based, Plasmodium falciparum; conditions: for P. falciparum (IC50) D6: LDH assay, Table 6; for S. I. (D6): Selectivity Index = IC50 (Vero cells)/IC50 (P. falciparum)
Description: (§4) The Thad Cochran National Center for Natural Products Research (University of Mississippi) in vitro antimalarial screen was conducted using an enzyme assay for detection of P. falciparum (see procedure below). This assay is based on the observation that lactate dehydrogenase (LDH) of P. falciparum is distinguishable from host LDH activity. P. falciparum LDH rapidly uses 3-acetyl pyridine nicotinamide adenine dinucleotide (APAD) as a coenzyme in the biotransformation of […].^38 The same process is carried out in human red blood cells at a very slow rate.
(§5) The “Antimalarial parasite LDH assay” is currently being conducted according the following procedure: prepare a suspension of RBC with a 2% parasitemia and 2% hematocrit in malaria complete medium. Dispense 200 μl aliquots of this suspension into each well of a 96 well microtiter plate. Add 10 μl volumes of the drugs to be tested in duplicate to the appropriate wells. Place the plates into humidified chamber and flush the cultures with a gas mixture consisting of 90% N2, 5% O2, and 5% CO2. Transfer the chamber containing the plates to an incubator, and incubate for 48 hours at 37° C. After 48 hours add 100 μl aliquots of the Malstat™ reagent to each well of a new 96-well microtiter plate Resuspend the cultures from the assay plate by mixing each well up and down several times. Remove 20 μl from each well of the resuspend culture and add to the plate containing the Malstat™ reagent. Incubate the plates at room temperature for 30 minutes. After 30 minutes, add to each well 20 μl of the 1:1 mixture of the NBT/PES solution (2 mg/ml and 0.1 mg/ml, respectively). Incubate the plates in the dark for 1 hour. Add 100 μl of 5% acetic acid solution to stop the reaction. The plate is then read at an endpoint of approximately 650 nm. The dose response curves are generated using Microsoft Excel.
(§6) Antimalarial activity of the analogues was determined in vitro on chloroquine sensitive (D)6, Sierra Leone) and resistant (W2, IndoChina) strains of Plasmodium falciparum. The 96 well microplate assay is based on evaluation of the effect of the compounds on the growth of asynchronous cultures of P. falciparum, determined by the assay of parasite lactate dehydrogenase (pLDH) activity.^28 The appropriate dilutions of the compounds were prepared in DMSO or RPMI-1640 medium and added to the cultures of P. falciparum (2% hematocrit, 2% parasitemia) set up in clear flat bottomed 96 well plates. The plates were placed into the humidified chamber and flushed with a gas mixture of 90% N2, 5% CO2 & 5% O2. The cultures were incubated at 37° C. for 48 hours. Growth of the parasite in each well was determined by pLDH assay using Malstat® reagent. The medium and RBC controls were also set-up in each plate. The standard antimalarial agents, chloroquine and artemisinin, were used as the positive controls while DMSO was tested as the negative control.

[5] = tested on: P. falciparum K1; assay: WHO/TDR in vitro antimalarial screen, K1; type: cell-based, Plasmodium falciparum; conditions: K1, chloroquine-resistant
Description: as §1, §2

[6] = aqueous solubility; type: physicochemical; conditions: pH 6.5, phosphate buffer
Description: (§7) Compounds 39 and 36 have reasonably low plasma LOQ of about 10 ng/mL, so it will be tested with lower oral doses in the coming future. If we assume that it is only the fraction of drug in solution that is absorbed, then the oral bioavailabilities may well increase with lower doses.

[7] = tested on: P. falciparum Indochina W2 clone; assay: WHO/TDR in vitro antimalarial screen, W2 clone; type: cell-based, Plasmodium falciparum; conditions: chloroquine-resistant, mefloquine-sensitive, second value in brackets not explained
Description: (§8) All test compounds are solubilized in DMSO and diluted 400 fold (to rule out a DMSO effect) in culture medium with plasma for a starting concentration of at least 12,500 ng/mL. Drugs are subsequently diluted five fold using the Cetus Pro/Pette system utilizing a range of concentrations from 0.8 ng/mL to 12,500 ng/mL. Fifty percent inhibitory concentrations are reported in ng/mL.
as §2

[8] = tested on: P. falciparum W2 (IndoChina); assay: antimalarial parasite LDH (pLDH) assay, W2; type: cell-based, Plasmodium falciparum; conditions: for P. falciparum (IC50) W2: LDH assay, Table 6; for S. I. (W2): Selectivity Index = IC50 (Vero cells)/IC50 (P. falciparum)
Description: as §4, §5
as §6, with “plate.” for “plate. The standard antimalarial agents, chloroquine and artemisinin, were used as the positive controls while DMSO was tested as the negative control.”

[9] = tested on: P. falciparum Sierra Leone D6 clone; assay: WHO/TDR in vitro antimalarial screen (uptake of radiolabeled nucleic acid precursor), D6 clone; type: cell-based, Plasmodium falciparum; conditions: mefloquine-resistant, chloroquine-sensitive, second value in brackets not explained
Description: as §8, §2

[10] = pharmacokinetics in rats after intravenous and oral administration; type: in vivo; conditions: for absolute oral bioavailability: high oral dose (~120 mg/kg)
Description: Preliminary data for the PK results of compounds 39 and 36 have been disclosed. […] Due to their very low aqueous solubility, the absolute oral bioavailability of each compound was low. The low value is rather a function of the high oral dose (˜120 mg/kg), but even with these high doses, the plasma concentrations are still relatively low.
The reason for the use of high oral dose is that the LC/MS assay has different intrinsic sensitivities for the different series of the Malperox compounds. Also, in order to compare all compounds from the different series at the same oral molar dose (dictated by the compound, which has the highest LOQ in the assay), it was necessary for them to have gone with this dose.
as §7
Solubility limitations meant that 36 could only be dosed IV at approximate 2 mg/kg (compared with the approximate 12 mg/kg dose for 39). It is possible that the shorter measured half life for 36 was a function of lower plasma concentrations, which have reflected part of the distribution phase rather than a true elimination phase.

[11] = tested on: P. berghei N; assay: in vivo Peter's 4-day antimalarial test in mice, P. berghei N; conditions: mice, 4-day test, unit not given; for P. berghei N P.O. ED50 / P. berghei N P.O. ED90: oral; for P. berghei N S.C. ED50 / P. berghei N S.C. ED90: subcutaneous
Description: as §3

[12] = tested on: VERO cells (monkey kidney fibroblast); type: cell-based
Description: Antileishmanial activity of the compounds was tested on a transgenic cell line of Leishmania donovani promastigotes expressing firefly luciferase.^29a In a 96 well microplate assay, compounds with appropriate dilution were added to the leishmania promastigotes culture (2×10^6 cell/mL). The plates were incubated at 26° C. for 72 hours and growth of leishmania promastigotes was determined by luciferase assay with Steady Glo® reagent (Promega, USA). Pentamidine and Amphotericin B were used as standard antileishmanial agents. The analogues were simultaneously tested for cytotoxicity on VERO cells (monkey kidney fibroblast) by Neutral Red assay.^29b IC50 values for the compounds were computed from the growth inhibition curve.

## C[C@H]1[C@@H](O)O[C@@H]2O[C@@]3(C)CC[C@H]4[C@H](C)CC[C@@H]1[C@@]24OO3 [dihydroartemisinin]
[1]
  times more potent than the parent compound (artemisinin) in vitro: approximately 10 times

## (+)-Octahydro-3,6α-dimethyl-3,12-epoxy-9β-(3′-(p-trifluoromethylphenyl)propyl)-12H-pyrano[4,3j]-1,2-benzodioxepin [Compound 39]
[2]
  P. falciparum (IC50) NF54: 101.52 (48.78) ng/mL
[3]
  P. yoelli ssp. NS (S.C.) ED50: 0.67 (0.5-0.88)
  P. yoelli ssp. NS (S.C.) ED90: 1.25 (0.95-1.6)
[4]
  P. falciparum (IC50) D6: 0.012 µg/mL
  S. I. (D6): >40
[5]
  P. falciparum (IC50) K1: 0.03955 µg/mL
[6]
  aqueous solubility: ~0.1 microgram per mL
[7]
  P. falciparum (IC50) W2: 0.05801 µg/mL
[8]
  P. falciparum (IC50) W2: 0.012 µg/mL
  S. I. (W2): >40
[9]
  P. falciparum (IC50) D6: 0.02813 µg/mL
[10]; IV, approximate 12 mg/kg
  half-life: 1.22 h
[10]
  absolute oral bioavailability: low
[11]
  P. berghei N P.O. ED50: 0.63 (0.32-1.25)
  P. berghei N P.O. ED90: 2.1 (1.1-4.1)
  P. berghei N S.C. ED50: 0.44 (0.25-0.62)
  P. berghei N S.C. ED90: 0.85 (0.5-1.2)

## (+)-Octahydro-3,6α-dimethyl-3,12-epoxy-9β-(3′-(m-chlorophenyl)propyl)-12H-pyrano[4,3j]-1,2-benzodioxepin [Compound 36]
[2]
  P. falciparum (IC50) NF54: 16.27 (40.19) ng/mL
[3]
  P. yoelli ssp. NS (S.C.) ED50: 0.60 (0.4-1.0)
  P. yoelli ssp. NS (S.C.) ED90: 1.00 (0.8-1.8)
[4]
  P. falciparum (IC50) D6: 0.0076 µg/mL
  S. I. (D6): >63.0
[5]
  P. falciparum (IC50) K1: 0.01007 µg/mL
[6]
  aqueous solubility: ~0.1 microgram per mL
[12]
  Cytotoxicity (Vero) TC50: NC^b
[7]
  P. falciparum (IC50) W2: 0.0216 µg/mL
[8]
  P. falciparum (IC50) W2: 0.008 µg/mL
  S. I. (W2): >60
[9]
  P. falciparum (IC50) D6: 0.00755 µg/mL
[10]
  absolute oral bioavailability: low
[11]
  P. berghei N P.O. ED50: 2.0 (0.9-3.5)
  P. berghei N P.O. ED90: 8.3 (3.5-14.0)
  P. berghei N S.C. ED50: 0.5 (0.1-1.0)
  P. berghei N S.C. ED90: 0.9 (0.3-1.8)
